Source: BigSolDB 2.1

Nc1ncccn1
Details	solubility (mole fraction)
in 2-butanone, 272.65 K	0.0201
in 2-butanone, 278.25 K	0.0249
in 2-butanone, 283.55 K	0.0317
in 2-butanone, 288.15 K	0.0361
in 2-butanone, 293.15 K	0.0418
in 2-butanone, 297.85 K	0.0512
in 2-butanone, 302.65 K	0.0621
in 2-butanone, 307.25 K	0.0721
in 2-butanone, 312.55 K	0.0865
in 2-butanone, 317.35 K	0.0988
in 2-butanone, 323.35 K	0.118
in 2-pentanone, 272.65 K	0.0158
in 2-pentanone, 278.25 K	0.0192
in 2-pentanone, 283.55 K	0.0238
in 2-pentanone, 288.15 K	0.027
in 2-pentanone, 293.15 K	0.0309
in 2-pentanone, 297.85 K	0.0372
in 2-pentanone, 302.65 K	0.0446
in 2-pentanone, 307.25 K	0.0513
in 2-pentanone, 312.55 K	0.0603
in 2-pentanone, 317.35 K	0.0684
in 2-pentanone, 323.35 K	0.0808
in acetone, 272.65 K	0.0222
in acetone, 278.25 K	0.027
in acetone, 283.55 K	0.0311
in acetone, 288.15 K	0.0359
in acetone, 293.15 K	0.0415
in acetone, 297.85 K	0.0478
in acetone, 302.65 K	0.0545
in acetone, 307.25 K	0.0618
in acetone, 312.55 K	0.0702
in acetone, 317.35 K	0.0802
in acetone, 323.35 K	0.0913
in acetonitrile, 272.65 K	0.0108
in acetonitrile, 278.25 K	0.0128
in acetonitrile, 283.55 K	0.0156
in acetonitrile, 288.15 K	0.0176
in acetonitrile, 293.15 K	0.0203
in acetonitrile, 297.85 K	0.0251
in acetonitrile, 302.65 K	0.0308
in acetonitrile, 307.25 K	0.0366
in acetonitrile, 312.55 K	0.0449
in acetonitrile, 317.35 K	0.0531
in acetonitrile, 323.35 K	0.0661
in cyclohexanone, 272.65 K	0.0371
in cyclohexanone, 278.25 K	0.0457
in cyclohexanone, 283.55 K	0.0529
in cyclohexanone, 288.15 K	0.0618
in cyclohexanone, 293.15 K	0.072
in cyclohexanone, 297.85 K	0.0835
in cyclohexanone, 302.65 K	0.0952
in cyclohexanone, 307.25 K	0.109
in cyclohexanone, 312.55 K	0.124
in cyclohexanone, 317.35 K	0.143
in cyclohexanone, 323.35 K	0.164
in cyclopentanone, 272.65 K	0.0605
in cyclopentanone, 278.25 K	0.0721
in cyclopentanone, 283.55 K	0.0815
in cyclopentanone, 288.15 K	0.0918
in cyclopentanone, 293.15 K	0.103
in cyclopentanone, 297.85 K	0.116
in cyclopentanone, 302.65 K	0.128
in cyclopentanone, 307.25 K	0.14
in cyclopentanone, 312.55 K	0.154
in cyclopentanone, 317.35 K	0.169
in cyclopentanone, 323.35 K	0.185
in ethanol, 272.65 K	0.00996
in ethanol, 278.25 K	0.0138
in ethanol, 283.55 K	0.0184
in ethanol, 288.15 K	0.0234
in ethanol, 293.15 K	0.0302
in ethanol, 297.85 K	0.0384
in ethanol, 302.65 K	0.0485
in ethanol, 307.25 K	0.06
in ethanol, 312.55 K	0.0765
in ethanol, 317.35 K	0.0945
in ethanol, 323.35 K	0.123
in ethyl acetate, 272.65 K	0.0337
in ethyl acetate, 278.25 K	0.0366
in ethyl acetate, 283.55 K	0.0407
in ethyl acetate, 288.15 K	0.0436
in ethyl acetate, 293.15 K	0.0474
in ethyl acetate, 297.85 K	0.0536
in ethyl acetate, 302.65 K	0.0609
in ethyl acetate, 307.25 K	0.0678
in ethyl acetate, 312.55 K	0.0779
in ethyl acetate, 317.35 K	0.0867
in ethyl acetate, 323.35 K	0.101
in ethyl formate, 272.65 K	0.0286
in ethyl formate, 278.25 K	0.0364
in ethyl formate, 283.55 K	0.0471
in ethyl formate, 288.15 K	0.0542
in ethyl formate, 293.15 K	0.0631
in ethyl formate, 297.85 K	0.0772
in ethyl formate, 302.65 K	0.0928
in ethyl formate, 307.25 K	0.106
in ethyl formate, 312.55 K	0.125
in ethyl formate, 317.35 K	0.14
in ethyl formate, 323.35 K	0.163
in isobutanol, 272.65 K	0.00833
in isobutanol, 278.25 K	0.0116
in isobutanol, 283.55 K	0.0155
in isobutanol, 288.15 K	0.02
in isobutanol, 293.15 K	0.0259
in isobutanol, 297.85 K	0.0331
in isobutanol, 302.65 K	0.0423
in isobutanol, 307.25 K	0.0528
in isobutanol, 312.55 K	0.0669
in isobutanol, 317.35 K	0.0828
in isobutanol, 323.35 K	0.107
in isopentanol, 272.65 K	0.0102
in isopentanol, 278.25 K	0.0136
in isopentanol, 283.55 K	0.0174
in isopentanol, 288.15 K	0.0215
in isopentanol, 293.15 K	0.0264
in isopentanol, 297.85 K	0.0321
in isopentanol, 302.65 K	0.0385
in isopentanol, 307.25 K	0.0458
in isopentanol, 312.55 K	0.0546
in isopentanol, 317.35 K	0.0638
in isopentanol, 323.35 K	0.0769
in isopropanol, 272.65 K	0.00686
in isopropanol, 278.25 K	0.00999
in isopropanol, 283.55 K	0.0139
in isopropanol, 288.15 K	0.0184
in isopropanol, 293.15 K	0.025
in isopropanol, 297.85 K	0.0325
in isopropanol, 302.65 K	0.0422
in isopropanol, 307.25 K	0.0539
in isopropanol, 312.55 K	0.0718
in isopropanol, 317.35 K	0.0918
in isopropanol, 323.35 K	0.122
in methanol, 272.65 K	0.0213
in methanol, 278.25 K	0.028
in methanol, 283.55 K	0.0359
in methanol, 288.15 K	0.0444
in methanol, 293.15 K	0.0554
in methanol, 297.85 K	0.0675
in methanol, 302.65 K	0.0823
in methanol, 307.25 K	0.0984
in methanol, 312.55 K	0.121
in methanol, 317.35 K	0.145
in methanol, 323.35 K	0.18
in methyl acetate, 272.65 K	0.0189
in methyl acetate, 278.25 K	0.0234
in methyl acetate, 283.55 K	0.0296
in methyl acetate, 288.15 K	0.0341
in methyl acetate, 293.15 K	0.0397
in methyl acetate, 297.85 K	0.0488
in methyl acetate, 302.65 K	0.0596
in methyl acetate, 307.25 K	0.0694
in methyl acetate, 312.55 K	0.0838
in methyl acetate, 317.35 K	0.0956
in methyl acetate, 323.35 K	0.115
in n-butanol, 272.65 K	0.00804
in n-butanol, 278.25 K	0.0114
in n-butanol, 283.55 K	0.0157
in n-butanol, 288.15 K	0.0205
in n-butanol, 293.15 K	0.027
in n-butanol, 297.85 K	0.0349
in n-butanol, 302.65 K	0.0449
in n-butanol, 307.25 K	0.0569
in n-butanol, 312.55 K	0.0743
in n-butanol, 317.35 K	0.0934
in n-butanol, 323.35 K	0.123
in n-pentanol, 272.65 K	0.0117
in n-pentanol, 278.25 K	0.0147
in n-pentanol, 283.55 K	0.0182
in n-pentanol, 288.15 K	0.0219
in n-pentanol, 293.15 K	0.0264
in n-pentanol, 297.85 K	0.0314
in n-pentanol, 302.65 K	0.0373
in n-pentanol, 307.25 K	0.0437
in n-pentanol, 312.55 K	0.0521
in n-pentanol, 317.35 K	0.0609
in n-pentanol, 323.35 K	0.0733
in n-propanol, 272.65 K	0.0142
in n-propanol, 278.25 K	0.0187
in n-propanol, 283.55 K	0.0243
in n-propanol, 288.15 K	0.03
in n-propanol, 293.15 K	0.0377
in n-propanol, 297.85 K	0.0462
in n-propanol, 302.65 K	0.0567
in n-propanol, 307.25 K	0.0687
in n-propanol, 312.55 K	0.0849
in n-propanol, 317.35 K	0.102
in n-propanol, 323.35 K	0.127
